From US4439603A, “Anthracycline derivatives of β-rhodomycinone glycosides” (Sanraku-Ocean Co., Ltd., priority 1981, dated 1984) come the findings set out here.

The structures appear in SMILES notation. Converted amounts (≈) assume the structure as drawn.

The subject of series [1] is L1210 leukemia cells. Kind of series: Growth inhibition of cultured mouse leukemia L1210 cells (48 hours, viable cell count). It counts as cell-based. To be noted: for IC50: Mus musculus, L1210, 48 h, read-out: 50% Inhibitory concentration, Growth inhibition after 48 hours; for antitumor effect on L1210 leukemia cells: result in words. As for the experimental part: The L1210 cells were cultivated at 37° C. overnight and transferred to RPMI (Roswell Park Memorial Institute) 1640 medium containing 20% calf serum at their exponential growth phase so as to give a cell concentration of 4×10^4 cells/ml. The compounds of the present invention were added to the medium at a concentration of 0.01-0.25 μg/ml. Incubation was performed in a CO2 -incubator at 37° C. for 2 days and then the number of viable cells was counted.
(§1) Independently of the above-mentioned experiment, the compounds of the present invention were added to an about 5×10^5 cells/ml L1210 cell suspension in RPMI 1640 medium containing 10% calf serum at a concentration of 0.02-2.5 μg/ml. After 15 minutes, ^14 -C-uridine (0.05 μCi/ml) or ^14 C-thymidine (0.05 μCi/ml) was added to the suspension and pulse-labeling was carried out at 37° C. for 60 minutes. The reaction was stopped by addition of a cold 10% trichloroacetic acid solution and an acid-insoluble fraction was precipitated. The precipitate was washed with a cold 5% trichloroacetic acid and the radioactivity was measured.

For series [2], the system named is L1210 cells, RNA synthesis. The series is described as follows: Inhibition of RNA synthesis (14C-uridine incorporation) in L1210 cells. It counts as cell-based, mouse. To be noted: RPMI 1640 with 10% calf serum, pulse-labeling 60 minutes at 37° C.; for IC50: Mus musculus, L1210, 1 h, read-out: 50% Inhibitory concentration, 14C-Uridine (Inhibition of RNA synthesis). As for the experimental part: as §1

In series [3] the test system is L1210 cells, DNA synthesis. The series is described as follows: Inhibition of DNA synthesis (14C-thymidine incorporation) in L1210 cells. It is filed as cell-based, mouse. To be noted: RPMI 1640 with 10% calf serum, pulse-labeling 60 minutes at 37° C.; for IC50: Mus musculus, L1210, 1 h, read-out: 50% Inhibitory concentration, 14C-Thymidine (Inhibition of DNA synthesis). As to the method: as §1

A short description of series [4]: Solubility. It is filed as physicochemical. As to the method: Solubilities of the compounds of the present invention, β-rhodomycinone-RDA, -RDRs, and -RD are similar. […] The color of the solutions, when they are dissolved, is red or reddish yellow, which is changed to violet in alkaline solution.
Series [5] is described as follows: Acute toxicity in mice upon a single intraabdominal injection. It is filed as in vivo. To be noted: mouse, in vivo, ip.
For series [6], the system named is mice. The description is as above. It counts as in vivo.
The mark [7] stands for this setting: L1210 cells, RPMI 1640 with 20% calf serum, 37° C., 48 hours.
The mark [8] stands for this setting: in acidic water, methanol, ethanol, n-butanol, acetone, ethyl acetate, chloroform, benzene, toluene, dimethylsulfoxide and methyl cellosolve.

For the compound `CCC1(O)CC(OC2CC(N(C)C)C(OC3CC(O)C(OC4CCC(=O)C(C)O4)C(C)O3)C(C)O2)c2c(O)c3c(c(O)c2C1O)C(=O)c1cccc(O)c1C3=O` (stereo not drawn) [β-Rhodomycinone-RDC, reference compound], the IC50 worked out at 0.01 µg/mL (≈ 0.0127 µM) in series [1] (setting [7]), 0.07 µg/mL (≈ 0.0891 µM) in series [2] and 0.45 µg/mL (≈ 0.573 µM) in series [3].

As usually defined, the LD50 is the dose expected to kill half of the subjects tested. A lower LD50 goes with a more toxic substance. `CCC1(O)CC(OC2CC(N(C)C)C(OC3CC(O)C(O)C(C)O3)C(C)O2)c2c(O)c3c(c(O)c2C1O)C(=O)c1cccc(O)c1C3=O` (stereo not drawn) [β-Rhodomycinone-RD]: the IC50 came out at 0.01 µg/mL (≈ 0.0148 µM) in series [1] (setting [7]), 0.13 µg/mL (≈ 0.193 µM) in series [2] and 0.36 µg/mL (≈ 0.534 µM) in series [3]. Moreover, in series [1], the “antitumor effect on L1210 leukemia cells” value was “have an antitumor effect on L1210 leukemia cells”. Besides, the Solubility result is on record as “soluble” in series [4] (setting [8]); “slightly soluble” in series [4] (in water, ether and n-hexane). In addition, in series [5], the LD50 was determined as 25.5 mg/kg.

As to `CCC1(O)CC(OC2CC(N(C)C)C(OC3CC(O)C(OC4CCC(O)C(C)O4)C(C)O3)C(C)O2)c2c(O)c3c(c(O)c2C1O)C(=O)c1cccc(O)c1C3=O` (stereo not drawn) [β-Rhodomycinone-RDA], the figures for the IC50 in series [1] (setting [7]), in series [2] and in series [3] were 0.028 µg/mL (≈ 0.0355 µM), 0.095 µg/mL (≈ 0.121 µM) and 0.52 µg/mL (≈ 0.66 µM), respectively. In addition, the “antitumor effect on L1210 leukemia cells” value in series [1] is listed as “have an antitumor effect on L1210 leukemia cells”. Further, the Solubility entry in series [4] (setting [8]) is listed as “soluble”; in series [4] (in water, ether and n-hexane), “slightly soluble”. In series [5], this compound returned an LD50 of 40.6 mg/kg.

`CCC1(O)CC(OC2CC(N(C)C)C(OC3CC(O)C(OC4CCC(O)C(C)O4)C(C)O3)C(C)O2)c2c(O)c3c(c(O)c2C1O)C(=O)c1cccc(O)c1C3=O` (stereo not drawn) [β-Rhodomycinone-RDRs]: in series [1] (setting [7]), the “50% Inhibitory concentration, Growth inhibition after 48 hours” value amounted to 0.016 µg/mL. In series [1], the “antitumor effect on L1210 leukemia cells” value is recorded as “have an antitumor effect on L1210 leukemia cells”. The Solubility result was “soluble” in series [4] (setting [8]); “slightly soluble” in series [4] (in water, ether and n-hexane). Besides, the “50% Inhibitory concentration, 14C-Uridine (Inhibition of RNA synthesis)” value in series [2] was found to be 0.085 µg/mL. Moreover, the “acute toxicity (LD50 value)” value in series [6] is 35.3 mg/kg. For the same compound, in series [3], the “50% Inhibitory concentration, 14C-Thymidine (Inhibition of DNA synthesis)” value turned out to be 0.54 µg/mL.
